Measured values from patent publication US20060069132A1, “Azolecarboxamide herbicides” (priority 2004, published 2006).

How the values were obtained:
barnyardgrass [1] = test: Test A pre-/postemergence herbicide test; format: in vivo, Echinochloa crus-galli
Summary of the method: (§1)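 Plants are held in greenhouse about ten days after treatment, then compared with untreated controls and scored 0 (no effect) to 100 (complete control). Preemergence dosing is a directed soil spray on sown sandy loam; postemergence dosing is spray to runoff at 2–10 cm height.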

large crabgrass [2] = test: Test A pre-/postemergence herbicide test; format: in vivo, Digitaria sanguinalis
Summary of the method: as §1

giant foxtail [3] = test: Test A pre-/postemergence herbicide test; format: in vivo, Setaria faberi
Summary of the method: as §1

morningglory [4] = test: Test A pre-/postemergence herbicide test; format: in vivo, Ipomoea spp.
Summary of the method: as §1

redroot pigweed = test: Test A pre-/postemergence herbicide test; format: in vivo, Amaranthus retroflexus
Summary of the method: as §1

velvetleaf [5] = test: Test A pre-/postemergence herbicide test; format: in vivo, Abutilon theophrasti
Summary of the method: as §1

barnyardgrass [6] = test: Test B pre-/postemergence herbicide test; format: in vivo, Echinochloa crus-galli; settings: for Barnyardgrass plant response rating: postemergence
Summary of the method: (§2)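 Species tested were Echinochloa crus-galli, Ipomoea coccinea, Xanthium strumarium and Oryza sativa, treated both before emergence and at the 1- to 4-leaf stage; rice and barnyardgrass were also tested under flooding at 2 leaves. Greenhouse incubation lasted 13–15 days before visual 0–100 scoring.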

Surinam grass = test: Test B pre-/postemergence herbicide test; format: in vivo, Urochloa decumbens; settings: for Surinam Grass plant response rating: postemergence
Summary of the method: (§3)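 Seeds were planted and treated preemergence with compounds formulated in a non-phytotoxic solvent mixture containing surfactant, while plants at the 1- to 4-leaf stage (2 to 18 cm) received postemergence sprays. Flooded paddy plants were grown to the 2-leaf stage. After 13 to 15 days in a greenhouse, injury was visually rated 0–100 against untreated controls.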

cocklebur = test: Test B pre-/postemergence herbicide test; format: in vivo, Xanthium strumarium; settings: for Cocklebur plant response rating: postemergence
Summary of the method: as §2

corn = test: Test B pre-/postemergence herbicide test; format: in vivo, Zea mays; settings: for Corn plant response rating: postemergence
Summary of the method: as §3

large crabgrass [7] = test: Test B pre-/postemergence herbicide test; format: in vivo, Digitaria sanguinalis; settings: for Crabgrass, Large plant response rating: postemergence
Summary of the method: as §3

giant foxtail [8] = test: Test B pre-/postemergence herbicide test; format: in vivo, Setaria faberi; settings: for Foxtail, Giant plant response rating: postemergence
Summary of the method: as §3

lambsquarters = test: Test B pre-/postemergence herbicide test; format: in vivo, Chenopodium album; settings: postemergence
Summary of the method: as §3

morningglory [9] = test: Test B pre-/postemergence herbicide test; format: in vivo, Ipomoea coccinea; settings: for Morningglory plant response rating: postemergence
Summary of the method: as §2

pigweed = test: Test B pre-/postemergence herbicide test; format: in vivo, Amaranthus retroflexus; settings: for Pigweed plant response rating: postemergence
Summary of the method: as §3

rice [10] = test: Test B pre-/postemergence herbicide test; format: in vivo, Oryza sativa; settings: 0 = no effect, 100 = complete control, preemergence
Summary of the method: as §3

velvetleaf [11] = test: Test B pre-/postemergence herbicide test; format: in vivo, Abutilon theophrasti; settings: for Velvetleaf plant response rating: postemergence
Summary of the method: as §3

blackgrass = test: Test B postemergence herbicide test; format: in vivo, Alopecurus myosuroides; settings: postemergence
Summary of the method: (§4)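 Plants grow to 1- to 4-leaf stage (2–18 cm) for postemergence spraying, or to 2-leaf stage for the paddy test. Formulated compound is applied. Greenhouse holding lasts 13–15 days. Response is scored visually relative to controls, 0 no effect to 100 complete control; a dash means no result.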

wheat = test: Test B postemergence herbicide test; format: in vivo, Triticum aestivum; set-up: key to Wheat plant response rating: 0 = no effect, 100 = complete control; settings: postemergence
Summary of the method: (§5)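 After treating 2-leaf paddy plants or 2–18 cm postemergence plants (1 to 4 leaves) with formulated chemical, researchers kept them in a greenhouse for 13–15 days. Effects were judged visually versus controls: 0 indicates none, 100 total control.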

wild oat = test: Test B postemergence herbicide test; format: in vivo, Avena fatua; settings: postemergence
Summary of the method: as §5

rice [12] = test: Test B flooded paddy test; format: in vivo, Oryza sativa; settings: 1000 g ai/ha, scale 0 to 100 (0 no effect, 100 complete control)
Summary of the method: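 Visual ratings, 0 (no effect) to 100 (complete control), made versus controls after 13–15 d greenhouse. Paddy plants treated at 2-leaf stage; postemergence plants at 1- to 4-leaf stage, 2–18 cm tall.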

[13] = system: small flower umbrella sedge; test: Test B flooded paddy test; format: in vivo, Cyperus difformis; settings: 1000 g ai/ha, scale 0 to 100 (0 no effect, 100 complete control)
Summary of the method: as §4

ducksalad = test: Test B flooded paddy test; format: in vivo, Heteranthera limosa; settings: 1000 g ai/ha, scale 0 to 100 (0 no effect, 100 complete control)
Summary of the method: as §4

barnyardgrass [14] = test: Test B flooded paddy test; format: in vivo, Echinochloa crus-galli; settings: 1000 g ai/ha, scale 0 to 100 (0 no effect, 100 complete control)
Summary of the method: as §4

[15] = Postemergence, 500 g ai/ha, 0 to 100 scale, 0 no effect, 100 complete control
[16] = Postemergence, 2000 g ai/ha, 0 to 100 scale, 0 no effect, 100 complete control
[17] = Preemergence, 2000 g ai/ha, visual rating, 0 to 100 scale (0 no effect, 100 complete control)
[18] = preemergence, 500 g ai/ha, visual injury, 0 to 100 scale (0 no effect, 100 complete control)
[19] = 125 g ai/ha, 0 = no effect, 100 = complete control, preemergence
[20] = 500 g ai/ha, visual rating, 0 = no effect, 100 = complete control, preemergence
[21] = 125 g ai/ha, visual rating, scale 0 (no effect) to 100 (complete control)
[22] = 500 g ai/ha, scale 0 to 100, 0 is no effect, 100 is complete control

CCn1nc(C(C)(C)C)cc1C(=O)Nc1cc(C(=O)N(C)C)c(F)cc1F [Compound 270]
55: Velvetleaf plant response rating (velvetleaf [5]; [17])
10: Plant response rating, Crabgrass, Large (large crabgrass [2]; [16]) | Surinam Grass plant response rating (Surinam grass; [22]) | Corn plant response rating (corn; [22]) | Lambsquarters plant response rating (lambsquarters; [22]) | Morningglory plant response rating (morningglory [9]; [22])
70: Foxtail, Giant plant response rating (giant foxtail [3]; [17]) | Plant response rating, Velvetleaf (velvetleaf [11]; [20]) | Rice plant response rating (rice [12]) | Ducksalad plant response rating (ducksalad)
90: Barnyardgrass plant response rating (barnyardgrass [1]; [17])
5: Crabgrass, Large plant response rating (large crabgrass [2]; [18])
25: Plant response rating, Velvetleaf (velvetleaf [5]; [16])
15: Pigweed plant response rating (redroot pigweed; [18]) | Velvetleaf plant response rating (velvetleaf [5]; [15])
0: Barnyardgrass plant response rating (barnyardgrass [1]; [15]) | Crabgrass, Large plant response rating (large crabgrass [2]; [15]) | Foxtail, Giant plant response rating (giant foxtail [3]; [15]) | Plant response rating, Foxtail, Giant (giant foxtail [3]; [16]) | Morningglory plant response rating (morningglory [4]; [18]) | Plant response rating, Pigweed (redroot pigweed; [16]) | Barnyardgrass plant response rating (0 to 100 scale) (barnyardgrass [6]; [19]) | Barnyardgrass plant response rating (barnyardgrass [6]; [21]) | Barnyardgrass plant response rating (barnyardgrass [6]; [22]) | Surinam Grass plant response rating (0 to 100 scale) (Surinam grass; [19]) | Surinam Grass plant response rating (Surinam grass; [21]) | Cocklebur plant response rating (0 to 100 scale) (cocklebur; [19]) | Plant response rating, Cocklebur (cocklebur; [20]) | Cocklebur plant response rating (cocklebur; [21]) | Cocklebur plant response rating (cocklebur; [22]) | Corn plant response rating (0 to 100 scale) (corn; [19]) | Corn plant response rating (corn; [21]) | Crabgrass, Large plant response rating (0 to 100 scale) (large crabgrass [7]; [19]) | Crabgrass, Large plant response rating (large crabgrass [7]; [21]) | Crabgrass, Large plant response rating (large crabgrass [7]; [22]) | Foxtail, Giant plant response rating (0 to 100 scale) (giant foxtail [8]; [19]) | Foxtail, Giant plant response rating (giant foxtail [8]; [21]) | Foxtail, Giant plant response rating (giant foxtail [8]; [22]) | Lambsquarters plant response rating (lambsquarters; [21]) | Morningglory plant response rating (0 to 100 scale) (morningglory [9]; [19]) | Plant response rating, Morningglory (morningglory [9]; [20]) | Morningglory plant response rating (morningglory [9]; [21]) | Pigweed plant response rating (0 to 100 scale) (pigweed; [19]) | Pigweed plant response rating (pigweed; [21]) | Pigweed plant response rating (pigweed; [22]) | Rice plant response rating (0 to 100 scale) (rice [10]; 125 g ai/ha) | Velvetleaf plant response rating (velvetleaf [11]; [21]) | Velvetleaf plant response rating (velvetleaf [11]; [22]) | Blackgrass plant response rating (blackgrass; [21]) | Wheat plant response rating (wheat; [21]) | Wheat plant response rating (wheat; [22]) | Oat, Wild plant response rating (wild oat; [21]) | Oat, Wild plant response rating (wild oat; [22])
30: Plant response rating, Barnyardgrass (barnyardgrass [1]; [16]) | Morningglory plant response rating (morningglory [4]; [17]) | Velvetleaf plant response rating (velvetleaf [5]; [18])
60: Barnyardgrass plant response rating (barnyardgrass [1]; [18]) | Plant response rating, Rice (rice [10]; 500 g ai/ha, visual rating) | Sedge, Umbrella plant response rating [13]
50: Plant response rating, Barnyardgrass (barnyardgrass [6]; [20]) | Plant response rating, Corn (corn; [20]) | Plant response rating, Foxtail, Giant (giant foxtail [8]; [20]) | Velvetleaf plant response rating (0 to 100 scale) (velvetleaf [11]; [19]) | Barnyardgrass plant response rating (barnyardgrass [14])
20: Foxtail, Giant plant response rating (giant foxtail [3]; [18]) | Morningglory plant response rating (morningglory [4]; [15]) | Plant response rating, Morningglory (morningglory [4]; [16]) | Pigweed plant response rating (redroot pigweed; [15]) | Plant response rating, Surinam Grass (Surinam grass; [20]) | Plant response rating, Crabgrass, Large (large crabgrass [7]; [20]) | Blackgrass plant response rating (blackgrass; [22])
85: Pigweed plant response rating (redroot pigweed; [17])
35: Crabgrass, Large plant response rating (large crabgrass [2]; [17])
